Results: PubChem BioAssay AID1963961 (Molecular Pharmacology Branch, DTP, NCI, 2024)

Tested on: K98450-129-R-PDC multicell spheroids, viability
Assay: Anticancer human tumor K98450-129-R-PDC patient-derived colon adenocarcinoma cell line growth inhibition [PI3K]
Details: for IC50: curve of first compound; for viability, T/C: stronger effect = lower value
In short: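 Multi-cell spheroids combine tumor cells with HUVEC and human MSCs, treated with targeted agents alone or with inavolisib, alpelisib, duvelisib or copanlisib. Concentrations fall in half-log steps from at or near clinical Cmax, or from 10 microM where Cmax is unknown; viability read-out.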

[1] = second compound 0.0316 µM, first compound 0.0316 µM
[2] = second compound 0.0316 µM, first compound 0.1 µM
[3] = second compound 0.1 µM, first compound 0.0316 µM
[4] = second compound 0.1 µM, first compound 0.1 µM
[5] = second compound 0.316 µM, first compound 0.0316 µM
[6] = second compound 0.316 µM, first compound 0.1 µM
[7] = second compound 1 µM, first compound 0.0316 µM
[8] = second compound 1 µM, first compound 0.1 µM
[9] = second compound 3.16 µM, first compound 0.0316 µM
[10] = second compound 3.16 µM, first compound 0.1 µM
[11] = second compound 10 µM, first compound 0.0316 µM
[12] = second compound 10 µM, first compound 0.1 µM
[13] = second compound 0.0316 µM, first compound 0.316 µM
[14] = second compound 0.0316 µM, first compound 1 µM
[15] = second compound 0.0316 µM, first compound 3.16 µM
[16] = second compound 0.0316 µM, first compound 10 µM
[17] = second compound 0.1 µM, first compound 0.316 µM
[18] = second compound 0.1 µM, first compound 1 µM
[19] = second compound 0.1 µM, first compound 3.16 µM
[20] = second compound 0.1 µM, first compound 10 µM
[21] = second compound 0.316 µM, first compound 0.316 µM
[22] = second compound 0.316 µM, first compound 1 µM
[23] = second compound 0.316 µM, first compound 3.16 µM
[24] = second compound 0.316 µM, first compound 10 µM
[25] = second compound 1 µM, first compound 0.316 µM
[26] = second compound 1 µM, first compound 1 µM
[27] = second compound 1 µM, first compound 3.16 µM
[28] = second compound 1 µM, first compound 10 µM
[29] = second compound 3.16 µM, first compound 0.316 µM
[30] = second compound 3.16 µM, first compound 1 µM
[31] = second compound 3.16 µM, first compound 3.16 µM
[32] = second compound 3.16 µM, first compound 10 µM
[33] = second compound 10 µM, first compound 0.316 µM
[34] = second compound 10 µM, first compound 1 µM
[35] = second compound 10 µM, first compound 3.16 µM
[36] = second compound 10 µM, first compound 10 µM
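Further: spheroids exposed to agents for seven days before read-out.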

For `CC(C)n1nc(-c2ccc3oc(N)nc3c2)c2c(N)ncnc21` + CC(Nc1ncnc2nc[nH]c12)c1cc2cccc(Cl)c2c(=O)n1-c1ccccc1, the IC50 (second compound 0.0316 µM) was > 0.1 µM, the IC50 (second compound 0.1 µM) was > 0.1 µM and the IC50 (second compound 0.316 µM) was > 0.1 µM. For the same compound, the IC50 (second compound 1 µM) was > 0.1 µM, the IC50 (second compound 3.16 µM) was > 0.1 µM and the IC50 (second compound 10 µM) was > 0.1 µM. It also gave a viability, T/C (second compound 0.0316 µM, first compound 0.000316 µM) of 106%, a viability, T/C (second compound 0.0316 µM, first compound 0.001 µM) of 91.5% and a viability, T/C (second compound 0.0316 µM, first compound 0.00316 µM) of 93.9%. For the same compound, the viability, T/C (second compound 0.0316 µM, first compound 0.01 µM) was 79%, the viability, T/C [1] was 84.6% and the viability, T/C [2] was 84.6%. It also gave a viability, T/C (second compound 0.1 µM, first compound 0.000316 µM) of 126%, a viability, T/C (second compound 0.1 µM, first compound 0.001 µM) of 96.9% and a viability, T/C (second compound 0.1 µM, first compound 0.00316 µM) of 106%. It also gave a viability, T/C (second compound 0.1 µM, first compound 0.01 µM) of 111%, a viability, T/C [3] of 81.1% and a viability, T/C [4] of 72.8%. It also gave a viability, T/C (second compound 0.316 µM, first compound 0.000316 µM) of 108%, a viability, T/C (second compound 0.316 µM, first compound 0.001 µM) of 134% and a viability, T/C (second compound 0.316 µM, first compound 0.00316 µM) of 81.3%. It also gave a viability, T/C (second compound 0.316 µM, first compound 0.01 µM) of 95.4%, a viability, T/C [5] of 92.7% and a viability, T/C [6] of 71.1%. It also gave a viability, T/C (second compound 1 µM, first compound 0.000316 µM) of 101%, a viability, T/C (second compound 1 µM, first compound 0.001 µM) of 111% and a viability, T/C (second compound 1 µM, first compound 0.00316 µM) of 84.3%. For the same compound, the viability, T/C (second compound 1 µM, first compound 0.01 µM) was 97.6%, the viability, T/C [7] was 92.1% and the viability, T/C [8] was 71.3%. For the same compound, the viability, T/C (second compound 3.16 µM, first compound 0.000316 µM) was 110%, the viability, T/C (second compound 3.16 µM, first compound 0.001 µM) was 97.4% and the viability, T/C (second compound 3.16 µM, first compound 0.00316 µM) was 103%. It also gave a viability, T/C (second compound 3.16 µM, first compound 0.01 µM) of 91.7%, a viability, T/C [9] of 90.4% and a viability, T/C [10] of 67.3%. The viability, T/C (second compound 10 µM, first compound 0.000316 µM) was 92.6%, the viability, T/C (second compound 10 µM, first compound 0.001 µM) was 84.2% and the viability, T/C (second compound 10 µM, first compound 0.00316 µM) was 87.1%. It also gave a viability, T/C (second compound 10 µM, first compound 0.01 µM) of 88.5%, a viability, T/C [11] of 87.6% and a viability, T/C [12] of 78.2%.

`CC1(C)CCC(CN2CCN(c3ccc(C(=O)NS(=O)(=O)c4ccc(NCC5CCOCC5)c([N+](=O)[O-])c4)c(Oc4cnc5[nH]ccc5c4)c3)CC2)=C(c2ccc(Cl)cc2)C1` + CC(Nc1ncnc2nc[nH]c12)c1cc2cccc(Cl)c2c(=O)n1-c1ccccc1 gave an IC50 (second compound 0.0316 µM) of 5.26 µM, an IC50 (second compound 0.1 µM) of 5.65 µM and an IC50 (second compound 0.316 µM) of 5.38 µM. It also gave an IC50 (second compound 1 µM) of 5.29 µM, an IC50 (second compound 3.16 µM) of 5.48 µM and an IC50 (second compound 10 µM) of 5.13 µM. The viability, T/C [1] was 96.2%, the viability, T/C [2] was 94.7% and the viability, T/C [13] was 96.2%. The viability, T/C [14] was 118%, the viability, T/C [15] was 84.8% and the viability, T/C [16] was 6.25%. For the same compound, the viability, T/C [3] was 100%, the viability, T/C [4] was 104% and the viability, T/C [17] was 105%. It also gave a viability, T/C [18] of 100%, a viability, T/C [19] of 97.4% and a viability, T/C [20] of 3.46%. The viability, T/C [5] was 135%, the viability, T/C [6] was 104% and the viability, T/C [21] was 94.9%. The viability, T/C [22] was 98.6%, the viability, T/C [23] was 94.4% and the viability, T/C [24] was 3.48%. For the same compound, the viability, T/C [7] was 87.8%, the viability, T/C [8] was 116% and the viability, T/C [25] was 89%. For the same compound, the viability, T/C [26] was 88.5%, the viability, T/C [27] was 87.5% and the viability, T/C [28] was 3.81%. The viability, T/C [9] was 85.8%, the viability, T/C [10] was 105% and the viability, T/C [29] was 90.4%. The viability, T/C [30] was 86.1%, the viability, T/C [31] was 95.8% and the viability, T/C [32] was 3.31%. It also gave a viability, T/C [11] of 86.4%, a viability, T/C [12] of 87.6% and a viability, T/C [33] of 82.9%. For the same compound, the viability, T/C [34] was 75.3%, the viability, T/C [35] was 88.1% and the viability, T/C [36] was 3.12%.

`C[C@@H](NC(=O)c1ncnc(N)c1Cl)c1ncc(C(=O)Nc2cc(C(F)(F)F)c(Cl)cn2)s1` + CC(Nc1ncnc2nc[nH]c12)c1cc2cccc(Cl)c2c(=O)n1-c1ccccc1 was tested, and the IC50 (second compound 0.0316 µM) was > 10 µM, the IC50 (second compound 0.1 µM) was > 10 µM and the IC50 (second compound 0.316 µM) was > 10 µM. For the same compound, the IC50 (second compound 1 µM) was > 10 µM, the IC50 (second compound 3.16 µM) was > 10 µM and the IC50 (second compound 10 µM) was > 10 µM. For the same compound, the viability, T/C [1] was 113%, the viability, T/C [2] was 108% and the viability, T/C [13] was 117%. For the same compound, the viability, T/C [14] was 124%, the viability, T/C [15] was 109% and the viability, T/C [16] was 104%. The viability, T/C [3] was 123%, the viability, T/C [4] was 106% and the viability, T/C [17] was 119%. The viability, T/C [18] was 108%, the viability, T/C [19] was 123% and the viability, T/C [20] was 96%. It also gave a viability, T/C [5] of 107%, a viability, T/C [6] of 118% and a viability, T/C [21] of 103%. For the same compound, the viability, T/C [22] was 108%, the viability, T/C [23] was 126% and the viability, T/C [24] was 96.1%. The viability, T/C [7] was 115%, the viability, T/C [8] was 106% and the viability, T/C [25] was 102%. The viability, T/C [26] was 106%, the viability, T/C [27] was 126% and the viability, T/C [28] was 86.8%. It also gave a viability, T/C [9] of 92.3%, a viability, T/C [10] of 112% and a viability, T/C [29] of 95.8%. For the same compound, the viability, T/C [30] was 120%, the viability, T/C [31] was 123% and the viability, T/C [32] was 101%. It also gave a viability, T/C [11] of 95.5%, a viability, T/C [12] of 106% and a viability, T/C [33] of 90.9%. The viability, T/C [34] was 103%, the viability, T/C [35] was 124% and the viability, T/C [36] was 78%.
